Assay results published in patent US20220339135A1, “COMPOSITIONS AND METHODS FOR MODULATING AN INFLAMMATORY RESPONSE” (Enzychem Lifesciences Corporation, priority 2019, published 2022).

How the values were obtained:
[1] = test system: citrullinated histone H3 in dHL-60 cells; assay: Histone H3 citrullination, western blot; format: cell-based, human; conditions: time-dependent
Description: dHL-60 cells were lysed on ice for 30 minutes in RIPA buffer composed of 50 mM Tris-HCl (pH 7.4), 150 mM NaCl, 2 mM EDTA, 1% NP-40, 0.5% sodium deoxycholate, 0.1% SDS, 1 mM phenylmethylsulfonyl fluoride (PMSF), 10 mM sodium fluoride, 2 mM sodium pyrophosphate, 10 mM β-glycerophosphate, 10 mM sodium orthovanadate. The lysates were centrifuged at 13,000 rpm for 20 minutes at 4° C. and protein concentrations were determined using the Bradford assay (Bio-Rad Laboratories). Denatured samples were mixed with a 5×SDS-PAGE loading buffer and heated to 100° C. for 15 min. The samples were separated on the 10% of SDS-PAGE gel and transferred to polyvinylidene difluoride (PVDF) membranes (Merck Millipore Corporation, MA, USA). Membranes were blocked with 5% non-fat milk in PBS (10 mM Tris-HCl, pH7.5, 150 mM NaCl) for 1 h and probed with primary antibodies against histone H3 (citrulline R2+R8+R17) from abcam (USA) and β-actin from cell signaling (USA) for overnight at 4° C. The blots were washed and incubated with appropriate secondary antibodies and visualized using Pierce™ ECL Western Blotting Substrate (Thermo Scientific).

[2] = [14C] PLAG radioactivity in blood and lymph fluid; format: in vivo, rats; conditions: single oral [14C] PLAG
Description: Quantification of PLAG in blood and lymph fluid was performed in Mitsubishi Chemical Medicine Corporation (Japan) by radioactivity analysis. [^14C] PLAG was synthesized by the LSI Medience Corporation (Kumamoto, Japan). The specific activities were 348.9 kBq/mg. The purity of the compound was 99.7%. The pharmacokinetics of [^14C] PLAG were determined in Crl: CD (SD) rats (Charles River Laboratories Japan, Inc.). Rats received [^14C] PLAG at 100 mg/5 mL/kg (dosing radioactivity: 5 MBq/kg) via the oral route. To determine radioactivity concentration in lymph fluid, the abdominal large thoracic duct-cannulated animals were fitted with collars while under isoflurane anesthesia and were subjected to the administration at least 30 minutes after collar fitting. […] Each of the collected samples was measured for radioactivity. Blood was collected from the subclavian vein and used to determine the radioactivity. […] Radioactivity was measured by LSC (Tri-Carb 2300TR. Perkin Elmer, Inc) with the tSIE (transformed spectral index of external standard) method for the quenching correction.
Quantification of PLAG in blood and lymph fluid was performed in Mitsubishi Chemical Medicine Corporation (Japan) by radioactivity analysis. […] PLAG were determined in Crl: CD (SD) rats (Charles River Laboratories Japan, Inc.). […] PLAG at 100 mg/5 mL/kg (dosing radioactivity: 5 MBq/kg) via the oral route. […]

[3] = test system: P2Y6 receptor on THP-1 cells; assay: MSU-induced P2Y6 receptor trafficking; format: cell-based, human
Description: THP-1 cells were divided into two groups: 1) MSU treated group and 2) MSU/PLAG treated group. For MSU treated group, THP-1 cells were stimulated with monosodium urate (MSU) crystal (400 μg/ml) for 0, 10, 20, 30, 40, 50, 60 minutes. For MSU/PLAG treated group, THP-1 cells were pre-incubated with PLAG (100 μg/ml) for an hour and then stimulated with monosodium urate (MSU) crystal (400 μg/ml) for 0, 10, 20, 30, 40, 50, 60 minutes. Then, cells were harvested. (A) To detect for the P2Y6 receptor on the membrane surface, cells were fixed with 4% paraformaldehyde (Sigma-Aldrich) and incubated with PBS containing 1% BSA for blocking. They were labeled with the rabbit anti-P2Y6 receptor antibody (1:200, APR-011, Alomone Labs, Jerusalem, Israel) for 1 h. The detection Ab was used with Alexa Flour 488 goat anti-rabbit IgG (Invitrogen). (B) To detect lysosomal activity, THP-1 cells were stained with Texas red conjugated-LYSO-ID® Lysosomal Detection Kit (Enzo Life Sciences, Inc.). Finally, cells were washed with 1% FBS/PBS and mounted with DAPI-containing fluorescence microscopy mounting medium (Invitrogen). Confocal samples were analyzed with a laser scanning confocal microscope (Carl Zeiss, Oberkochen, Germany). For flow cytometric analysis, cells were washed and analyzed with a FACSVerse flow cytometer (BD Biosciences). FlowJo software (Tree Star, OR, USA) was used data processing.
The specific siRNA of CD36 (sc-29995) and control siRNA (sc-37007) were purchased from Santa Cruz Biotechnology. Cells were transfected with 50 nM of either the targeting or control siRNA using HiPerFect Transfection Reagent (Qiagen, Hilden, Germany) for 24 h. The knockdown efficiency of siRNAs was confirmed by Western blot analysis.
THP-1 cells were pre-incubated with PLAG (100 μg/ml) for 1 hour and then stimulated with MSU crystal (400 μg/ml). After 15, 30, 60 min, cells were harvested. […] For flow cytometric analysis, cells were washed with 1% FBS/PBS and analyzed with a FACSVerse flow cytometer (BD Biosciences). […]

## CCCCC/C=C\C/C=C\CCCCCCCC(=O)OC(COC(C)=O)COC(=O)CCCCCCCCCCCCCCC (racemic) [PLAG, 1-palmitoyl-2-linoleoyl-3-acetylglycerol]
[1]
  histone H3 citrullination: induced
[2]
  PLAG in lymphatic vessel versus blood vessel: More PLAG was detected in the lymphatic vessel than blood vessel
[2]; blood and lymph fluid
  time of highest concentration: 8 h
[3]; MSU/PLAG treated cells
  P2Y6 endocytosis initiates: about 10 minutes
  P2Y6 returned to the surface: about 30 minutes
[3]; control and CD36 silenced cells
  promotion of P2Y6 receptor endocytosis (flow cytometry): still observed
